Measured values reported in US20160303094A1, “PHARMACEUTICAL COMPOSITIONS COMPRISING ANTIBACTERIAL AGENTS” (priority 2013, published 2016).
Where a name gives a salt, the structure may show the parent alone.

Test system: A. baumannii S 226 strain producing CHDL Oxacillinases (OXA 51, OXA-23)
Experiment: Time-kill study: viable bacterial count in Mueller Hinton broth
Format: cell-based, Acinetobacter baumannii
Conditions: for Bacterial count: initial count 6.62 log CFU/ml
Protocol: The antibacterial activity of compositions according to the invention against various bacterial strains was investigated. In a typical study, freshly grown cultures were diluted to required cell density (initial starting inoculum) in Mueller Hinton broth medium (BD, USA). The antibacterial agents, either alone or in combination, at required concentrations were added into the medium containing the desired initial starting inoculum. The samples were incubated under shaking condition (120 rpm) at 37° C. Enumeration of viable bacterial count was undertaken, every 2 hours, by diluting in normal saline and plating on to the Tryptic Soya Agar plates (BD, USA). The plates were incubated for 24 hours to arrive at the viable bacterial count. The antibacterial activity is expressed in terms of Colony Forming Units (CFU). The decrease of 1 Log CFU/ml, after administration of combination of present invention, in comparison to initial bacterial count corresponds to 90% killing of bacteria. Similarly, 2 Log CFU/ml reductions corresponds to 99% killing of bacteria and 3 Log CFU/ml reductions is equal to 99.9% killing of bacteria.
The combination according to invention was tested against highly resistant A. baumannii S 226 strain producing Carbapenem hydrolyzing (CHDL) Oxacillinases [OXA-51, OXA-23]. The assay without any antibacterial agent was taken as control.

[1] = 2 hours, active ingredient alone at 8 mcg/ml
[2] = 4 hours, active ingredient alone at 8 mcg/ml
[3] = 6 hours, active ingredient alone at 8 mcg/ml
[4] = 8 hours, active ingredient alone at 8 mcg/ml
[5] = 24 hours, active ingredient alone at 8 mcg/ml

SMILES | Bacterial count (2 hours, active ingredient alone at 4 mcg/ml) | Bacterial count (4 hours, active ingredient alone at 4 mcg/ml) | Bacterial count (6 hours, active ingredient alone at 4 mcg/ml) | Bacterial count (8 hours, active ingredient alone at 4 mcg/ml) | Bacterial count (24 hours, active ingredient alone at 4 mcg/ml) | decrease of the bacterial count of A. baumannii throughout the duration of the study (used alone at 4 mcg/ml) | Bacterial count [1] | Bacterial count [2] | Bacterial count [3] | Bacterial count [4] | Bacterial count [5] | decrease of the bacterial count of A. baumannii throughout the duration of the study (used alone at 8 mcg/ml)
N#C[C@@H]1CC[C@@H]2CN1C(=O)N2OS(=O)(=O)O [Sodium salt of a compound of Formula (I), sodium salt of sulphuric acid, mono[(1R,2S,5R)-2-cyano-7-oxo-1,6-diazabicyclo[3.2.1]oct-6-yl] ester] | 7.93 Log10 CFU/ml | 7.95 Log10 CFU/ml | 8.20 Log10 CFU/ml | 8.50 Log10 CFU/ml | 8.60 Log10 CFU/ml | failed to decrease the bacterial count |  |  |  |  |  | 
C[C@@H](O)[C@H]1C(=O)N2C(C(=O)O)=C(S[C@@H]3CN[C@H](C(=O)N(C)C)C3)[C@H](C)[C@H]12 [Meropenem] |  |  |  |  |  |  | 8.00 Log10 CFU/ml | 8.34 Log10 CFU/ml | 8.45 Log10 CFU/ml | 8.65 Log10 CFU/ml | 8.70 Log10 CFU/ml | failed to decrease the bacterial count
C[C@@H](O)[C@H]1C(=O)N2C(C(=O)O)=C(S[C@@H]3CN[C@H](CNS(N)(=O)=O)C3)[C@H](C)[C@H]12 [Doripenem] |  |  |  |  |  |  | 7.95 Log10 CFU/ml | 8.08 Log10 CFU/ml | 8.12 Log10 CFU/ml | 8.50 Log10 CFU/ml | 8.30 Log10 CFU/ml | failed to decrease the bacterial count
C[C@@H](O)[C@H]1C(=O)N2C(C(=O)O)=C(SCCN=CN)C[C@H]12 [Imipenem] |  |  |  |  |  |  | 7.46 Log10 CFU/ml | 8.26 Log10 CFU/ml | 8.43 Log10 CFU/ml | 8.52 Log10 CFU/ml | 8.74 Log10 CFU/ml | 
